Measurements published in patent publication US9528090B2, “Differentiation of human embryonic stem cells” (Janssen Biotech, Inc., priority 2010, dated 2016).

Experiments:
[1] = tested on: human embryonic stem cells line H1; test: Definitive endoderm differentiation of H1 cells, single cell seeding (GDF8/GSK3B inhibitor, MCDB-131): FACS for CXCR4 and CD9; format: cell-based; conditions: for % CXCR4 + CD9− / % CXCR4 − CD9+ / % CXCR4 − CD9−: day 4
Experimental: Cells of the human embryonic stem cells line H1 (p40-p52) were seeded as single cells at a density of 100000 cells/cm^2 on MATRIGEL® (1:30 dilution) (BD Biosciences; Cat #356231)-coated dishes in MEF-CM (mouse embryonic fibroblast conditioned media) supplemented with 16 ng/ml of FGF2 (Catalog#100-18B, PeproTech, NJ) and 10 μM of Y27632 (Rock inhibitor, Catalogue#Y0503, Sigma, Mo.). 72 hrs post seeding, cultures were differentiated into definitive endoderm (DE) as follows: • a. […] MCDB-131 medium supplemented with 2% BSA, sodium bicarbonate, Glutamax, and 100 ng/ml GDF-8 for an additional three days. In some of the cultures, the cells were treated with the following concentrations of IGF (Catalogue#AF100, PeproTech, NJ): 0, 1, 10, 50, or 200 ng/ml. As a control, instead of BSA, 0.2% FBS (Catalogue#SH30070.03, Hyclone, UT) was used for day 1 of differentiation, and 2% FBS was used for days 2-4. Some of the FBS treated cultures were also treated with various concentrations of IGF. At day 4, samples were collected for FACS and gene expression analysis using real-time PCR.

[2] = tested on: human embryonic stem cells line H1; test: Definitive endoderm differentiation of H1 cells, single cell seeding (GDF8/GSK3B inhibitor): real-time PCR gene expression; format: cell-based
Experimental: (§1) Cells of the human embryonic stem cells line H1 (p40-p52) were seeded as single cells at a density of 100000 cells/cm^2 on MATRIGEL® (1:30 dilution) (BD Biosciences; Cat #356231)-coated dishes in MEF-CM (mouse embryonic fibroblast conditioned media) supplemented with 16 ng/ml of FGF2 (Catalog#100-18B, PeproTech, NJ) and 10 μM of Y27632 (Rock inhibitor, Catalogue#Y0503, Sigma, Mo.). 72 hrs post seeding, cultures were differentiated into definitive endoderm (DE) as follows: • a. MCDB-131 (Catalogue#10372-019, Invitrogen, CA) medium supplemented with 2% fatty acid-free BSA (Catalog#68700, Proliant, IA), 0.0025 g/ml sodium bicarbonate (Catalogue #S3187, Sigma, Mo.), 1× GlutaMax™ (Catalogue #35050-079, Invitrogen, Ca) and 100 ng/ml GDF8 (Catalogue#120-00, PeproTech, NJ) plus 2.5 μM of the GSK3B inhibitor 14-Prop-2-en-1-yl-3,5,7,14,17,23,27-heptaazatetracyclo [19.3.1.1˜2,6˜0.1˜8,12˜]heptacosa-1(25),2(27),3,5,8(26),9,11,21,23-nonaen-16-one for one day, then • b. MCDB-131 medium supplemented with 2% BSA, sodium bicarbonate, Glutamax, and 100 ng/ml GDF-8 for an additional three days.
In some of the cultures, the cells were treated with the following concentrations of IGF (Catalogue#AF100, PeproTech, NJ): 0, 1, 10, 50, or 200 ng/ml. As a control, instead of BSA, 0.2% FBS (Catalogue#SH30070.03, Hyclone, UT) was used for day 1 of differentiation, and 2% FBS was used for days 2-4. Some of the FBS treated cultures were also treated with various concentrations of IGF.
At day 4, samples were collected for FACS and gene expression analysis using real-time PCR.
Cultures treated with medium supplemented with FBS were much more sensitive to the inhibitory effect of IGF. […] These observations was further supported by immuno fluorescence (IF) staining for the DE marker SOX17 (Catalogue #AF 1924, R & D systems, MN) (FIGS. 8-9).

[3] = tested on: human embryonic stem cells line H1; test: Definitive endoderm differentiation of H1 cells in FBS medium (GDF8/GSK3B inhibitor) with IGF or insulin: FACS and real-time PCR; format: cell-based; conditions: in the presence of FBS, 10-100 ng/ml, day 4
Experimental: as §1, with “a. with” for “a.”, “0.2% FBS (Catalogue#SH30070.03, Hyclone, UT),” for “2% fatty acid-free BSA (Catalog#68700, Proliant, IA),”, “14-Prop-2-en-1-yl-3,5,7,14,17,23,27-heptaazatetracyclo[19.3.1.1˜2,6˜0.1˜8,12˜]heptacosa-1(25),2(27),3,5,8(26),9,11,21,23-nonaen-16-one” for “14-Prop-2-en-1-yl-3,5,7,14,17,23,27-heptaazatetracyclo [19.3.1.1˜2,6˜0.1˜8,12˜]heptacosa-1(25),2(27),3,5,8(26),9,11,21,23-nonaen-16-one”, “FBS,” for “2% BSA,”, “GDF8” for “GDF-8”
0.5% FBS was used for day 2 and 2% FBS was used for days 3-4. Besides regular FBS, heat treated FBS (Catalogue#F4135, Sigma, Mo.) and charcoal stripped treated FBS (Catalogue#F6765, Sigma, Mo.) were also tested. Some of the FBS treated cultures were also treated with various concentrations of IGF (10-100 ng/ml) or insulin (10-100 ng/ml).
At day 4, samples were collected for analysis by FACS and real-time PCR.

ES cells = conditions: 25 ng/ml of IGF added to 2% FBS, MEF-CM, activin A; cited from earlier work
[4] = IGF 50-200 ng/ml, BSA treated cultures

With IGF as the substance, how does the “% CXCR4 + CD9−” value ([1]; BSA + 1 ng/ml IGF) read?
Its value is 92%.

And the “% CXCR4 − CD9+” value ([1]; BSA + 1 ng/ml IGF)?
Its value is 0.8%.

What about the “% CXCR4 − CD9−” value ([1]; BSA + 1 ng/ml IGF) of the same substance?
Its value is 3%.

And the “% CXCR4 + CD9−” value ([1]; BSA + 10 ng/ml IGF)?
The value was 90%.

What about the “% CXCR4 − CD9+” value ([1]; BSA + 10 ng/ml IGF) of the same substance?
The value was 1.3%.

And the “% CXCR4 − CD9−” value ([1]; BSA + 10 ng/ml IGF)?
The value was 5.3%.

And the “% CXCR4 + CD9−” value ([1]; BSA + 50 ng/ml IGF)?
The value was 87%.

And the “% CXCR4 − CD9+” value ([1]; BSA + 50 ng/ml IGF)?
The value was 6%.

And the “% CXCR4 − CD9−” value ([1]; BSA + 50 ng/ml IGF)?
The value was 3.5%.

And the “% CXCR4 + CD9−” value ([1]; BSA + 200 ng/ml IGF)?
The value was 79%.

And the “% CXCR4 − CD9+” value ([1]; BSA + 200 ng/ml IGF)?
Its value is 10%.

What about the “% CXCR4 − CD9−” value ([1]; BSA + 200 ng/ml IGF) of the same substance?
Its value is 8%.

And the “% CXCR4 + CD9−” value ([1]; FBS + 1 ng/ml IGF)?
The value was 89%.

What about the “% CXCR4 − CD9+” value ([1]; FBS + 1 ng/ml IGF) of the same substance?
The value was 3%.

And the “% CXCR4 − CD9−” value ([1]; FBS + 1 ng/ml IGF)?
The value was 3.6%.

And the “% CXCR4 + CD9−” value ([1]; FBS + 10 ng/ml IGF)?
The value was 87%.

And the “% CXCR4 − CD9+” value ([1]; FBS + 10 ng/ml IGF)?
The value was 6.4%.

What about the “% CXCR4 − CD9−” value ([1]; FBS + 10 ng/ml IGF) of the same substance?
Its value is 3.3%.

And the “% CXCR4 + CD9−” value ([1]; FBS + 50 ng/ml IGF)?
The value was 78%.

And the “% CXCR4 − CD9+” value ([1]; FBS + 50 ng/ml IGF)?
The value was 6.8%.

What about the “% CXCR4 − CD9−” value ([1]; FBS + 50 ng/ml IGF) of the same substance?
The value was 13.2%.

What about the “% CXCR4 + CD9−” value ([1]; FBS + 200 ng/ml IGF) of the same substance?
Its value is 70%.

And the “% CXCR4 − CD9+” value ([1]; FBS + 200 ng/ml IGF)?
The value was 13.4%.

And the “% CXCR4 − CD9−” value ([1]; FBS + 200 ng/ml IGF)?
Its value is 12.9%.

And the “CXCR4+CD9− cells” value [1, 4]?
The value was “drop in expression”.

And the “CXCR4−CD9+ fraction” value [1, 4]?
Its value is “increase in expression”.

And the “CXCr4+CD9− fraction” value ([1]; increasing doses of IGF, FBS treated versus BSA treated cultures)?
The value was “more significant drop”.

And the “expression of markers associated with definitive endoderm (FOXA2, SOX17, CER1, CXCR4)” value ([2]; 1-200 ng/ml of IGF, BSA treated cultures, versus no IGF)?
Its value is “did not significantly affect”.

And the “expression of the embryonic marker NANOG” value ([2]; 50-200 ng/ml of IGF)?
Its value is “did increase expression”.

And the “expression of SOX17, HNF3B and CXCR4” value ([2]; FBS supplemented cultures, increasing IGF)?
The value was “decreased with increasing concentration”.

What about the “expression of the pluripotency marker NANOG” value [3] of the same substance?
The value was “upregulated”.

What about the “markers associated with definitive endoderm such as SOX17 and CCXR4” value [3] of the same substance?
The value was “dose dependently down regulated”.

What about the “decrease of the expression of SOX17” value (ES cells) of the same substance?
The value was “approximately 70%”.
